Where two headings read alike, the source gives them in different places.
Key:
[1] = in vivo; cited from earlier work
[2] = tested on: MAO-A and B; details: irreversible, non-selective inhibitor; cited from earlier work
[3] = molecular target: T1, MAO-B (Sus scrofa, UniProt Q6PLK3); experiment: S9 porcine liver microsome fraction assay, kynuramine to 4HQ by LCMS; details: qualitative statement
T1 sequence (Q6PLK3 2-520): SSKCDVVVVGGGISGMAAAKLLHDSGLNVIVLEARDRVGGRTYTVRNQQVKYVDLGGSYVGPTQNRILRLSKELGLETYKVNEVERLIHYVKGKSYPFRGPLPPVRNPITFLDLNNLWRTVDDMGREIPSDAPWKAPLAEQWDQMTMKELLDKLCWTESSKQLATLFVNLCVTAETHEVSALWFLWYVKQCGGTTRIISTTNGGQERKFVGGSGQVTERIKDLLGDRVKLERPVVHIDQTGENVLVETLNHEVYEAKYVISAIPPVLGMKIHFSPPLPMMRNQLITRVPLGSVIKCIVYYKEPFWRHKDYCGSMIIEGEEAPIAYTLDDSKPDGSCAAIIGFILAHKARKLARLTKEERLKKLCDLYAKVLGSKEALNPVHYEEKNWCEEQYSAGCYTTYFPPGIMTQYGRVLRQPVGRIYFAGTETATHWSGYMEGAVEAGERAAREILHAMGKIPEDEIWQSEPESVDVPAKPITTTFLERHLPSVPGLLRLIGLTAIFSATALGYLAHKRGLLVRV
Method: We used a porcine S9 liver microsome fraction as the source of the MAO-A and MAO-B enzymes.
The S9 porcine fraction was mixed with a specific MAO substrate (kynuramine) and mixed with the test sample and buffer. After 1 hr at 37° C. the reaction was halted by cooling and addition of 2N NaOH and acetonitrile. The centrifuged sample was then analysed using LCMS and the level of 4-quinolol (4HQ) product measured.
Samples were prepared in a 6-well plate (deep well format with 1.1 ml strip tubes). The assay was performed by diluting the crude S9 fraction with buffer (PBS, PH 7.4, diluted 1 in 5, 150 μl) and adding the test sample dissolved in buffer (75 ul). An aliquot of kynuramine was added (10 ul of 1 mg/ml) and the plate was placed in a 37 C water bath for 1 hr. The plate was cooled in ice water before addition of 20 ul 2N NaOH followed by 250 μl acetonitrile. The individual strip tubes were centrifuged, and samples taken from each for LCMS analysis.
The LCMS analysis was performed using a Cyano HPLC column eluted with 0.1% formic in water and acetonitrile. The LC run was isocratic mode (40% Acetonitrile) and the relative levels of 4 hydroxy quinoline (4HQ) and kynuramine determined from peak areas. […] Kynuramine is converted to 4HQ by the MAO-B enzyme.
Various juice samples, concentrates, powders and whole fruit were tested. […]

[4] = In vitro digestion of blackcurrant juice concentrate (pepsin/acid, bile salts/pancreatin), LCMS; assay type: in vitro ADME
Method: Samples were taken at the end of 1st step and at 30 min intervals in the 2nd step to give 6 samples for analysis. The samples will be examined (LCMS) for the level of sarmentosin and sarmentosin esters and compared with the feed material. The two samples were treated as shown below in Table 17 to replicate digestion. [table] Samples taken from the subsequent treatments were stored frozen until required for analysis. The samples were all a similar volume and concentration of original juice. Analysis was performed using LCMS (method described in the earlier work). Samples were prepared in two ways, 1. addition of methanol to precipitate any protein or 2. Direct sampling of neat solution after centrifugation.

[5] = molecular target: T2, platelet MAO-B (Homo sapiens, UniProt P27338); experiment: Acute sarmentosin pilot study, platelet MAO-B activity (Example 10); assay type: in vivo; details: for platelet MAO-B activity compared with baseline (0 h): 2 h after consumption; for platelet MAO-B activity compared with baseline: 4 h after consumption
T2 construct: platelets were isolated from whole blood; from tissue; host or cells: platelets isolated from venous blood of human participants
T2 sequence (P27338 1-520): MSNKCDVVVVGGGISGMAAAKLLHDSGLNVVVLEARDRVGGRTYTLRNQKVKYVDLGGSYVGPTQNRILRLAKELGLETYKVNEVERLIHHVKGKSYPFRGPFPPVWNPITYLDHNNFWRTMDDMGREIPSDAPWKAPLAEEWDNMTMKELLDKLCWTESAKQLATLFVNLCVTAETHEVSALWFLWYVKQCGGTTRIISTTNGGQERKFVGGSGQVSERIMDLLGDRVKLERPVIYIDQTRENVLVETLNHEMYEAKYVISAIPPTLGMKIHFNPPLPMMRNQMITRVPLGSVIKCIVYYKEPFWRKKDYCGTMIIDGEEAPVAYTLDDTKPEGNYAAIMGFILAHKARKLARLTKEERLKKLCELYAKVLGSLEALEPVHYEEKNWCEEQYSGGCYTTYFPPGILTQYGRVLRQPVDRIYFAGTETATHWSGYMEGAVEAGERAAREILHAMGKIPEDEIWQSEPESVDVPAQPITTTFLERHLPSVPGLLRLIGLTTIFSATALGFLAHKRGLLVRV
Method: To determine the efficacy of sarmentosin in temporally inhibiting platelet MAO-B activity, we conducted a randomized, placebo-controlled crossover study. Human participants completed three treatment conditions (placebo, 42 mg sarmentosin, and 84 mg sarmentosin), with each trial day separated by at least 48 h.
Five healthy male adults aged between 25 and 36 years old were enrolled in this study. Participants were randomly allocated one of the three trial treatment beverages. All participants completed all three treatment arms of the study, and data from all participants were included in the study analysis. Enrolled participants were required to take part in three trial days where they consumed their allocated sarmentosin beverages or the placebo. Participants adhered to the same dietary restrictions and consumed the same standardized breakfast as previously described in the intervention study. A venous blood sample was collected at the beginning of each trial day, and then, participants were given their treatment beverage to consume immediately. […] Water was provided ad libitum during the trial day, and participants were seated in the clinical trial facility between venous blood collection time points.
Blackcurrant juice previously confirmed to contain sarmentosin was diluted 1:1 with RO-purified H2O and slowly applied to a column (10 cm diameter×125 cm height) filled with Diaion HP20 resin (Mitsubishi Chemical Industries, Japan). The eluant was collected until it was determined that most of sarmentosin had eluted and was quantified as described previously. Sarmentosin fractions were combined and concentrated using a rotary evaporator, and the resulting sarmentosin-rich fraction was then sterile filtered (Millipore Stericup (0.22 μM), Sigma-Aldrich).
Participants consumed a 250 mL beverage containing 42 and 84 mg total sarmentosin, similar to that present in one and two servings, respectively, of a commercial BC juice (Arepa Performance). Sucrose, BC flavouring, and coloring were added to the beverages to blind for taste and appearance. The placebo beverage was matched for sucrose, contained the same volume of added BC flavouring and coloring produced by Sensient Technologies (Auckland, New Zealand) as the sarmentosin beverages, and diluted to 250 mL to match for sweetness, appearance, and flavor.

[6] = human, in vivo
Method: Plasma was separated from whole blood collected in lithium heparin tubes from participants by centrifugation at 4000×g for 10 min at 4° C. Plasma (1 mL) was spiked with 30 μL of 50% formic acid and 100 µL of 10 mmol ascorbic acid then stored at −80° C. prior to shipping on dry ice to the Physiological Chemistry laboratory.
The plasma samples (350 μL) were spiked with malvidin 3-O-galactoside and further acidified with phosphoric acid prior to clean up on a SOLAμ™ Solid Phase Extraction plate. Following washing with water and acetic acid, the retained anthocyanins were eluted with methanol: formic acid (95:5), evaporated to dryness then reconstituted in acetonitrile: formic acid: water (5:3:92) prior to analysis by Liquid Chromatography-Mass Spectrometry (LC-MS). Quantifications of individual and total anthocyanins were performed using the internal standard ratio method using MultiQuant software, and all results are reported as cyanidin 3-O-glucoside equivalents. Quantification of sarmentosin was performed using an external reference standard supplied by Stephen Bloor (Callaghan Institute).

[7] = molecular target: T3, MAO-A (Homo sapiens, UniProt P21397); experiment: MAO-Glo assay kit, MAO-A; assay type: biochemical; details: dose response curve, 1 h room temperature
T3 sequence (P21397 1-527): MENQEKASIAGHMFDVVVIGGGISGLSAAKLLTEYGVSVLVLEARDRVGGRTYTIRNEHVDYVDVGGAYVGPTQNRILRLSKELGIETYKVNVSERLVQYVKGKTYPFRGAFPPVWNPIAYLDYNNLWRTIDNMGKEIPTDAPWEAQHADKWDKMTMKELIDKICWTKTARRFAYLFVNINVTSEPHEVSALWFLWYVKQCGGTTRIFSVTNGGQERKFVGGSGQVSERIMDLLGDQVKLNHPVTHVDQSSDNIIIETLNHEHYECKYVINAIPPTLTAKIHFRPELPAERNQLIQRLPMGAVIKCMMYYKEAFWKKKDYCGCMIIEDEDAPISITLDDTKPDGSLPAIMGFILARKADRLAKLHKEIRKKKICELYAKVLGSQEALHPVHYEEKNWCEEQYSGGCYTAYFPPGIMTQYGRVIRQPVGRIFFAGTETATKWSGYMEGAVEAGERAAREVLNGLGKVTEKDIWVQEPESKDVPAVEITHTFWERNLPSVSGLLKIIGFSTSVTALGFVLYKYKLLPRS
Method: (§1) Synthetic sarmentosin (BOC Sciences; Cat. No. B2703-149954) was diluted in PBS for the MAO inhibition assays. […] Briefly, samples were combined with the kit's luminogenic MAO substrate solution and human enzyme (MAO-A or MAO-B at a final concentration of 20 μg/mL) and incubated at room temperature for 1 h. Following incubation, the luciferin detection reagent were added to each sample and the change in luminescence was measured at room temperature over 40 min in a FLUOstar Omega plate reader (BMG FluoStar Optima, Alphatech Systems, Auckland, New Zealand). […] All samples were analysed in triplicate on each plate.

[8] = molecular target: T4, human enzyme MAO-B (Homo sapiens, UniProt P27338); experiment: MAO-Glo assay kit, MAO-B; assay type: biochemical; details: highest concentration tested
T4 sequence (P27338 1-520): T2 sequence (P27338 1-520)
Method: as §1

[9] = molecular target: T3, MAO-A; parameters: purchased Sigma-Aldrich MAK295/296; details: reversible inhibitor; cited from earlier work

O=C(NCCN1CCOCC1)c1ccc(Cl)cc1 [Moclobemide]
time to reach peak concentrations [1]: approximately 1 hours

NNCCc1ccccc1 [Phenelzine]
duration of inhibition of MAO-A and B [2]: up to three

N#C/C(=C\CO[C@@H]1O[C@H](CO)[C@@H](O)[C@H](O)[C@H]1O)CO [sarmentosin, 4-(beta-D-glucopyranosyloxy)-2-(hydroxymethyl-2-butenenitrile)]
MAO inhibition activity in S9-LCMS bioassay (level of 4HQ) [3]: the same activity | concentration after in vitro digestion steps [4]: increase | effect of final heating step (90 C. for 10 min) after digestion [4]: some degradation | platelet MAO-B activity compared with baseline (0 h) ([5]; 42 mg sarmentosin): similarly inhibited platelet MAO-B activity | platelet MAO-B activity compared with baseline ([5]; 42 mg sarmentosin): MAO-B activity comparable to baseline | platelet MAO-B activity compared with baseline (0 h) ([5]; 84 mg sarmentosin): similarly inhibited platelet MAO-B activity | platelet MAO-B activity compared with baseline ([5]; 84 mg sarmentosin): MAO-B activity comparable to baseline | time of peak concentrations of sarmentosin in plasma [6]: 120 min | IC50 [7]: 3.55 µM | inhibition at 250 µM [8]: 32%

Cc1cccc(N2CC(CO)OC2=O)c1 (centres unmarked) [toloxatone]
duration of MAO-A inhibition before activity returns to baseline [9]: six

nigrumin-p-coumarate
concentration after in vitro digestion steps ([4]; esters: steps 3 through 5, sarmentosin: steps 3 and 4, FIGS. 32 and 33): decrease
